{
  "source": "patent US20240148821A1",
  "about": "“PHARMACEUTICAL USE OF CYCLIC PEPTIDE COMPOUND” (CHUGAI SEIYAKU KABUSHIKI KAISHA, priority 2021, published 2024)",
  "note": "Bridge positions count the residues as written; N and C are the ends. Square brackets hold non-standard residues; d marks the D form. Peptide text beside a SMILES is read from it. * marks the point of attachment. hPhe(3-Cl-4-CF3) = N[C@@H](CCc1ccc(C(F)(F)F)c(Cl)c1)C(=O)O; NMePhe(4-Cl) = CN[C@@H](Cc1ccc(Cl)cc1)C(=O)O; NMePhe(4-Me) = CN[C@@H](Cc1ccc(C)cc1)C(=O)O; NMePhe(3-F) = CN[C@@H](Cc1cccc(F)c1)C(=O)O; NMeGly(cPent) = CN[C@H](C(=O)O)C1CCCC1; Phe(3-I) = N[C@@H](Cc1cccc(I)c1)C(=O)O; NMeCha = CN[C@@H](CC1CCCCC1)C(=O)O; NMeCba = CN[C@@H](CC1CCC1)C(=O)O; NMeChg = CN[C@H](C(=O)O)C1CCCCC1; N(CH2CH2)2CF2 = FC1(F)CCN(*)CC1; NMeD = CN[C@@H](CC(=O)O)C(=O)O; NMeL = CN[C@@H](CC(C)C)C(=O)O; NMeV = CN[C@H](C(=O)O)C(C)C; d(β3hA) = C[C@@H](N)CC(=O)O; NMeS = CN[C@@H](CO)C(=O)O; NMeA = CN[C@@H](C)C(=O)O; NMeAib = CNC(C)(C)C(=O)O; Nle = CCCC[C@H](N)C(=O)O; Piperidide = C1CCN(*)CC1; Ac5c = NC1(C(=O)O)CCCC1; Aze = O=C(O)[C@@H]1CCN1; NBuGly = CCCCNCC(=O)O; Aib = CC(C)(N)C(=O)O; Sar = CNCC(=O)O",
  "data": [
    {"system": "Human pancreatic cancer cell line AsPC-1 (G12D mutation Kras)", "assay": "AsPC-1 cell growth inhibition (AsPC-1 CGI)", "type": "cell-based", "details": "read-out: AsPC-1 cell growth inhibition, 50% growth inhibitory concentration (IC50 value); 96 hours, CellTiter-Glo, values classified in ranges", "units": {"IC50": "nM"}, "protocol": "Test compounds were serially dilated with dimethyl sulfoxide, and 200 nL was then dispensed to a U-bottom 96-well plate using Labcyte Echo. […] The cell suspension was dispensed to a. plate containing a test compound at 100 μL per well and incubated at 37° C. in a 5% carbon dioxide gas incubator. 96 hours later, 80 μL of CellTiter-Glo (Promega) was added to each well and fluorescence was measured.", "values": [
      {"smiles": "CC[C@H](C)[C@@H]1NC(=O)[C@H](CC(C)C)N(C)C(=O)C[C@@H](C)NC(=O)[C@H](C(C)C)N(C)C(=O)C2(CCCC2)NC(=O)[C@@H]2CCCN2C(=O)[C@H](CCc2ccc(C(F)(F)F)c(Cl)c2)NC(=O)CN(C)C(=O)[C@H](CC2CCC2)N(C)C(=O)CN(C)C(=O)CN(C)C1=O", "note": "[Compound 75] (cyclo([Ac5c][NMeV][d(β3hA)][NMeL]I[Sar][Sar][NMeCba][Sar][hPhe(3-Cl-4-CF3)]P))", "IC50": "> 500"},
      {"smiles": "CC[C@H](C)[C@@H]1NC(=O)[C@H](CC(C)C)N(C)C(=O)C[C@@H](C(=O)N2CCCCC2)N(C)C(=O)[C@H](C2CCCCC2)N(C)C(=O)C2(CCCC2)NC(=O)[C@@H]2CCCN2C(=O)[C@H](CCc2ccc(C(F)(F)F)c(Cl)c2)NC(=O)CN(C)C(=O)[C@H](CO)N(C)C(=O)CN(C)C(=O)CN(C)C1=O", "note": "[Compound 1687] ([NMeL]I[Sar][Sar][NMeS][Sar][hPhe(3-Cl-4-CF3)]P[Ac5c][NMeChg][NMeD]-Piperidide; lactam N-11)", "IC50": "> 500"},
      {"smiles": "CC[C@H](C)[C@@H]1NC(=O)[C@H](C)N(C)C(=O)C[C@@H](C)NC(=O)[C@H](C(C)C)N(C)C(=O)C(C)(C)N(C)C(=O)[C@@H]2CCCN2C(=O)[C@H](CCc2ccc(C(F)(F)F)c(Cl)c2)NC(=O)CN(C)C(=O)[C@H](CC2CCCCC2)N(C)C(=O)CN(C)C(=O)CN(C)C1=O", "note": "[Compound 93] (cyclo(I[Sar][Sar][NMeCha][Sar][hPhe(3-Cl-4-CF3)]P[NMeAib][NMeV][d(β3hA)][NMeA]))", "IC50": "> 500"},
      {"smiles": "CC[C@H](C)[C@@H]1NC(=O)[C@H](C)N(C)C(=O)C[C@@H](C)NC(=O)[C@H](C2CCCCC2)N(C)C(=O)C2(CCCC2)NC(=O)[C@@H]2CCCN2C(=O)[C@H](CCc2ccc(C(F)(F)F)c(Cl)c2)NC(=O)CN(C)C(=O)[C@H](CC2CCCCC2)N(C)C(=O)CN(C)C(=O)CN(C)C1=O", "note": "[Compound 1688] (cyclo([Ac5c][NMeChg][d(β3hA)][NMeA]I[Sar][Sar][NMeCha][Sar][hPhe(3-Cl-4-CF3)]P))", "IC50": "> 500"},
      {"smiles": "CCCCN1CC(=O)N(C)CC(=O)N(C)[C@@H](CC2CCCCC2)C(=O)N(C)CC(=O)N[C@@H](CCc2ccc(C(F)(F)F)c(Cl)c2)C(=O)N2CCC[C@H]2C(=O)NC2(CCCC2)C(=O)N(C)[C@@H](C(C)C)C(=O)N[C@H](C)CC(=O)N(C)[C@@H](CC(C)C)C(=O)N[C@@H]([C@@H](C)CC)C1=O", "note": "[Compound 123] (cyclo([Ac5c][NMeV][d(β3hA)][NMeL]I[NBuGly][Sar][NMeCha][Sar][hPhe(3-Cl-4-CF3)]P))", "IC50": "> 500"},
      {"smiles": "CC[C@H](C)[C@@H]1NC(=O)[C@H](CC(C)C)N(C)C(=O)C[C@@H](C(=O)N2CCCCC2)N(C)C(=O)[C@H](C(C)C)N(C)C(=O)C(C)(C)NC(=O)[C@H](CC(=O)N2CCC(F)(F)CC2)N(C)C(=O)[C@H](CCc2ccc(C(F)(F)F)c(Cl)c2)NC(=O)CN(C)C(=O)[C@H](CC2CCCCC2)N(C)C(=O)CN(C)C(=O)CN(C)C1=O", "note": "[Compound 463] ([NMeL]I[Sar][Sar][NMeCha][Sar][hPhe(3-Cl-4-CF3)][NMeD](N(CH2CH2)2CF2)[Aib][NMeV][NMeD]-Piperidide; lactam N-11)", "IC50": "> 500"},
      {"smiles": "CCCC[C@@H]1NC(=O)[C@H](Cc2cccc(I)c2)NC(=O)CN(C)C(=O)[C@H](Cc2ccc(Cl)cc2)N(C)C(=O)CN(C)C(=O)CN(C)C(=O)[C@H]([C@@H](C)CC)NC(=O)[C@H](CC(C)C)N(C)C(=O)C[C@@H](C(=O)N2CCCCC2)N(C)C(=O)[C@H](CC(C)C)NC(=O)[C@H](Cc2ccc(C)cc2)N(C)C1=O", "note": "[Compound 876] ([NMeL]I[Sar][Sar][NMePhe(4-Cl)][Sar][Phe(3-I)][Nle][NMePhe(4-Me)]L[NMeD]-Piperidide; lactam N-11)", "IC50": "> 500"},
      {"smiles": "CC[C@H](C)[C@@H]1NC(=O)[C@H](CC(C)C)N(C)C(=O)C[C@@H](C(=O)N(C)C)N(C)C(=O)[C@H](C2CCCC2)N(C)C(=O)C2(CCCC2)NC(=O)[C@H](Cc2cccc(F)c2)N(C)C(=O)[C@H](CCc2ccc(C(F)(F)F)c(Cl)c2)NC(=O)CN(C)C(=O)[C@H](CC2CCCCC2)N(C)C(=O)[C@@H]2CCN2C(=O)[C@H](C)N(C)C1=O", "note": "[Compound 95] ([NMeL]I[NMeA][Aze][NMeCha][Sar][hPhe(3-Cl-4-CF3)][NMePhe(3-F)][Ac5c][NMeGly(cPent)][NMeD]-NMe2; lactam N-11)", "IC50": "> 500"},
      {"smiles": "CC(C)C[C@H]1C(=O)N[C@@H](C(C)C)C(=O)N(C)CC(=O)N(C)CC(=O)N(C)[C@@H](CC2CCCCC2)C(=O)N(C)CC(=O)N[C@@H](CCc2ccc(C(F)(F)F)c(Cl)c2)C(=O)N2CCC[C@H]2C(=O)NC2(CCCC2)C(=O)N(C)[C@@H](CC(C)C)C(=O)N[C@H](C)CC(=O)N1C", "note": "[Compound 1452] (cyclo([Ac5c][NMeL][d(β3hA)][NMeL]V[Sar][Sar][NMeCha][Sar][hPhe(3-Cl-4-CF3)]P))", "IC50": "> 500"}
    ]}
  ]
}
